For this assay, the target named is T1, B. anthracis DHFR (Bacillus anthracis, UniProt Q81R22).
T1 construct: gene dfrA
T1 sequence (Q81R22 1-162): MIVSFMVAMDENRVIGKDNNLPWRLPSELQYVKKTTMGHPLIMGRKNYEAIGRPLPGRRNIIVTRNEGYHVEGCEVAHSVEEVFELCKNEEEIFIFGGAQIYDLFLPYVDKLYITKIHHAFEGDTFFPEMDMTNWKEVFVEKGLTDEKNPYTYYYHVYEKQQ
The experiment in a line: biochemical.
The term Ki denotes the equilibrium dissociation constant of an inhibitor or competing ligand from its target. High values mean weaker binding, low ones tighter binding. Take `COc1cc(Cc2cnc(N)nc2N)cc(/C=C/C(=O)N2N=Cc3ccccc3C2C)c1OC` (racemic) [6a, (±)-(E)-3-(5-((2,4-Diaminopyrimidin-5-yl)methyl)-2,3-dimethoxyphenyl)-1-(1-methylphthalazin-2(1H)-yl)prop-2-en-1-one]: affinity was put at a Ki of 8.8 ± 0.2 nM.
The figure for `CCC1c2ccccc2C=NN1C(=O)/C=C/c1cc(Cc2cnc(N)nc2N)cc(OC)c1OC` (racemic) [6b, (±)-(E)-3-(5-((2,4-Diaminopyrimidin-5-yl)methyl)-2,3-dimethoxyphenyl)-1-(1-ethylphthalazin-2(1H)-yl)prop-2-en-1-one] is 6.8 ± 0.2 nM; for `CCCCC1c2ccccc2C=NN1C(=O)/C=C/c1cc(Cc2cnc(N)nc2N)cc(OC)c1OC` (racemic) [6c, (±)-(E)-1-(1-n-Butylphthalazin-2(1H)-yl)-3-(5-((2,4-diaminopyrimidin-5-yl)methyl)-2,3-dimethoxyphenyl)prop-2-en-1-one] it is 7.9 ± 0.2 nM; for `CCC(C)C1c2ccccc2C=NN1C(=O)/C=C/c1cc(Cc2cnc(N)nc2N)cc(OC)c1OC` (racemic) [6d, (±)-(E)-1-(1-s-Butylphthalazin-2(1H)-yl)-3-(5-((2,4-diaminopyrimidin-5-yl)methyl)-2,3-dimethoxyphenyl)prop-2-en-1-one] it is 10.4 ± 0.2 nM.
`COc1cc(Cc2cnc(N)nc2N)cc(/C=C/C(=O)N2N=Cc3ccccc3C2C2CC2)c1OC` (racemic) [6e, (±)-(E)-1-(1-Cyclopropylphthalazin-2(1H)-yl)-3-(5-((2,4-diaminopyrimidin-5-yl)methyl)-2,3-dimethoxyphenyl)prop-2-en-1-one] showed a Ki of 4.9 ± 0.2 nM.
`COc1cc(Cc2cnc(N)nc2N)cc(/C=C/C(=O)N2N=Cc3ccccc3C2c2ccco2)c1OC` (racemic) [6f, (±)-(E)-3-(5-((2,4-Diaminopyrimidin-5-yl)methyl)-2,3-dimethoxyphenyl)-1-(1-(furan-2-yl)phthalazin-2(1H)-yl)prop-2-en-1-one] gave an inhibitory constant (Ki) of 5.9 ± 0.2 nM.
The figure for `COc1cc(Cc2cnc(N)nc2N)cc(/C=C/C(=O)N2N=Cc3ccccc3C2c2cccs2)c1OC` (racemic) [6g, (±)-(E)-3-(5-((2,4-Diaminopyrimidin-5-yl)methyl)-2,3-dimethoxyphenyl)-1-(1-(thiophen-2-yl)-phthalazin-2(1H)-yl)prop-2-en-1-one] is 8.4 ± 0.2 nM.
The figure for `COc1cc(Cc2cnc(N)nc2N)cc(/C=C/C(=O)N2N=Cc3ccccc3C2c2ccccn2)c1OC` (racemic) [6h, (±)-(E)-3-(5-((2,4-Diaminopyrimidin-5-yl)methyl)-2,3-dimethoxyphenyl)-1-(1-(pyridin-2-yl)phthalazin-2(1H)-yl)prop-2-en-1-one] is 9 ± 0.2 nM.
The figure for `COc1cc(Cc2cnc(N)nc2N)cc(/C=C/C(=O)N2N=Cc3ccccc3C2CC(=O)OC(C)(C)C)c1OC` (racemic) [11a, t-Butyl (±)-(E)-2-(2-(3-(5-((2,4-Diaminopyrimidin-5-yl)methyl)-2,3-dimethoxyphenyl)acryloyl)-phthal-azin-2(1H)-yl)acetate] is 59 ± 0.9 nM.
As for `CCOC(=O)CC1c2ccccc2C=NN1C(=O)/C=C/c1cc(Cc2cnc(N)nc2N)cc(OC)c1OC` (racemic) [11b, Ethyl (±)-(E)-2-(2-(3-(5-((2,4-Diaminopyrimidin-5-yl)methyl)-(2,3-dimethoxyphenyl)acryloyl)-phthal-azin-2(1H)-yl)acetate], the Ki turned out to be 24.9 ± 0.3 nM.
The figure for `COC(=O)CC1c2ccccc2C=NN1C(=O)/C=C/c1cc(Cc2cnc(N)nc2N)cc(OC)c1OC` (racemic) [11c, Methyl (±)-(E)-2-(2-(3-(5-((2,4-Diaminopyrimidin-5-yl)methyl)-2,3-dimethoxyphenyl)acryloyl)-phthal-azin-2(1H)-yl)acetate] is 20 ± 0.3 nM.
